# Test results published in PubChem BioAssay (NCI).
#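 A five-concentration, 48-hour dose response in 96-well plates underlies each endpoint, interpolated linearly between surrounding concentrations. Here, GI50 denotes the concentration required for 50% inhibition of growth. TGI is the concentration that stops growth completely.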
# Columns and labels:
# Assay in all cases: NCI-60 cell line screen, 48 h
# [1] = tested on: UO-31 renal
# [2] = tested on: OVCAR-4 ovarian
# [3] = tested on: K-562 leukemia
# [4] = tested on: SK-MEL-2 melanoma
# [5] = tested on: SK-MEL-28 melanoma
# [6] = tested on: OVCAR-5 ovarian
# [7] = tested on: UACC-257 melanoma
# [8] = tested on: PC-3 prostate
# [9] = tested on: U251 CNS
# [10] = tested on: MDA-MB-231 breast
# [11] = tested on: HCC-2998 colon
# [12] = tested on: SF-268 CNS
# [13] = tested on: KM12 colon
# [14] = tested on: SNB-19 CNS
# [15] = tested on: MOLT-4 leukemia
# [16] = tested on: OVCAR-3 ovarian
# [17] = tested on: 786-0 renal
# [18] = tested on: ACHN renal
# [19] = tested on: MALME-3M melanoma
# [20] = tested on: BT-549 breast
# [21] = tested on: HCT-15 colon
# [22] = tested on: CAKI-1 renal
# [23] = tested on: SF-295 CNS
# [24] = tested on: CCRF-CEM leukemia
# [25] = tested on: MDA-MB-435
# [26] = tested on: NCI-H23 lung
# [27] = tested on: LOX IMVI melanoma
# [28] = tested on: NCI/ADR-RES ovarian
# [29] = tested on: OVCAR-8 ovarian
# [30] = tested on: HT29 colon
# [31] = tested on: HL-60(TB) leukemia
# [32] = tested on: HS 578T breast
# [33] = tested on: EKVX NSCLC
# [34] = tested on: SF-539 CNS
# [35] = tested on: SR leukemia
# [36] = tested on: SK-MEL-5 melanoma
# [37] = tested on: NCI-H226 lung
# [38] = tested on: RXF 393 renal
# [39] = tested on: NCI-H460 lung
# [40] = tested on: T-47D breast
# [41] = tested on: A498 renal
# [42] = tested on: IGROV1 ovarian
# [43] = tested on: M14 melanoma
# [44] = tested on: MDA-MB-468 breast
# [45] = tested on: SN12C renal
# [46] = tested on: HOP-62 NSCLC
# [47] = tested on: UACC-62 melanoma
# [48] = tested on: RPMI-8226 leukemia
# [49] = tested on: SNB-75 CNS
# [50] = tested on: A549 NSCLC
# [51] = tested on: DU-145 prostate
# [52] = tested on: COLO 205 colon
# [53] = tested on: NCI-H522 lung
# [54] = tested on: SK-OV-3 ovarian
# [55] = tested on: MCF7 breast
# [56] = tested on: TK-10 renal
# [57] = tested on: SW-620 colon
# [58] = tested on: HOP-92 NSCLC
compound,measurement,setting,value
COc1ccc(-c2nc3ccccc3n2CC(=O)N=Nc2c(O)[nH]c3ccc(OC)cc23)cc1,GI50,[1],11.2 µM
same,TGI,[1],23.2 µM
same,GI50,[2],11.6 µM
same,TGI,[2],30 µM
same,GI50,[3],4.1 µM
same,TGI,[3],95.8 µM
same,GI50,[4],17.6 µM
same,TGI,[4],33.6 µM
same,GI50,[5],4.4 µM
same,TGI,[5],19.9 µM
same,GI50,[6],13.8 µM
same,TGI,[6],33.6 µM
same,GI50,[7],2.56 µM
same,TGI,[7],7.16 µM
same,GI50,[8],12.1 µM
same,TGI,[8],42.3 µM
same,GI50,[9],12.5 µM
same,TGI,[9],25.3 µM
same,GI50,[10],5.76 µM
same,TGI,[10],19.2 µM
same,GI50,[11],6.54 µM
same,TGI,[11],19 µM
same,GI50,[12],13.3 µM
same,TGI,[12],31.6 µM
same,GI50,[13],15.2 µM
same,TGI,[13],33.8 µM
same,GI50,[14],15.3 µM
same,TGI,[14],29.5 µM
same,GI50,[15],5.71 µM
same,TGI,[15],36.5 µM
same,GI50,[16],12.5 µM
same,TGI,[16],26.6 µM
same,GI50,[17],1.77 µM
same,TGI,[17],4.26 µM
same,GI50,[18],2.39 µM
same,TGI,[18],6.62 µM
same,GI50,[19],3.28 µM
same,TGI,[19],12.7 µM
same,GI50,[20],2.52 µM
same,TGI,[20],6.47 µM
same,GI50,[21],3.01 µM
same,TGI,[21],11.7 µM
same,GI50,[22],2.77 µM
same,TGI,[22],8.75 µM
same,GI50,[23],14.3 µM
same,TGI,[23],34.7 µM
same,GI50,[24],27.5 µM
same,TGI,[24],> 100 µM
same,GI50,[25],4.09 µM
same,TGI,[25],15.1 µM
same,GI50,[26],10.4 µM
same,TGI,[26],23.5 µM
same,GI50,[27],2.02 µM
same,TGI,[27],4.76 µM
same,GI50,[28],2.02 µM
same,TGI,[28],5.18 µM
same,GI50,[29],2.3 µM
same,TGI,[29],5.85 µM
same,GI50,[30],2.17 µM
same,TGI,[30],4.9 µM
same,GI50,[31],2.83 µM
same,TGI,[31],13.5 µM
same,GI50,[32],6.39 µM
same,TGI,[32],32.3 µM
same,GI50,[33],11.2 µM
same,TGI,[33],28.2 µM
same,GI50,[34],2.95 µM
same,TGI,[34],9.35 µM
same,GI50,[35],2.52 µM
same,TGI,[35],25.7 µM
same,GI50,[36],5.37 µM
same,TGI,[36],18.3 µM
same,GI50,[37],1.8 µM
same,TGI,[37],3.99 µM
same,GI50,[38],1.87 µM
same,TGI,[38],3.59 µM
same,GI50,[39],4.22 µM
same,TGI,[39],15.4 µM
same,GI50,[40],3.46 µM
same,TGI,[40],16.3 µM
same,GI50,[41],15.4 µM
same,TGI,[41],29.6 µM
same,GI50,[42],12.3 µM
same,TGI,[42],25.4 µM
same,GI50,[43],3.15 µM
same,TGI,[43],11 µM
same,GI50,[44],2 µM
same,TGI,[44],5.17 µM
same,GI50,[45],6.02 µM
same,TGI,[45],19.3 µM
same,GI50,[46],17.5 µM
same,TGI,[46],35.1 µM
same,GI50,[47],11.2 µM
same,TGI,[47],23.3 µM
same,GI50,[48],13.2 µM
same,TGI,[48],> 100 µM
same,GI50,[49],7.41 µM
same,TGI,[49],22.1 µM
same,GI50,[50],4.51 µM
same,TGI,[50],17.5 µM
same,GI50,[51],4.53 µM
same,TGI,[51],15.5 µM
same,GI50,[52],16.1 µM
same,TGI,[52],33.9 µM
same,GI50,[53],6.18 µM
same,TGI,[53],22.9 µM
same,GI50,[54],15.6 µM
same,TGI,[54],30.8 µM
same,GI50,[55],2.01 µM
same,TGI,[55],4.72 µM
same,GI50,[56],10.9 µM
same,TGI,[56],23.1 µM
same,GI50,[57],4.46 µM
same,TGI,[57],19.7 µM
same,GI50,[58],8.19 µM
same,TGI,[58],26.4 µM
CSc1nc2ccc(C)cc2cc1/C=C1/C=C(c2ccccc2)NC1=O,GI50,[44],5.77 µM
same,TGI,[44],61.3 µM
COC(=O)Nc1nc2ccc(C(=O)c3cccs3)cc2[nH]1,GI50,[44],0.161 µM
same,TGI,[44],> 100 µM
Cc1c2ccccc2c(C)n2c1nc1cc(Cl)c(Cl)cc12,GI50,[44],27.6 µM
same,TGI,[44],> 100 µM
c1ccc2c(NCCCN3CCOCC3)c3oc4ccccc4c3nc2c1,GI50,[44],1.36 µM
same,TGI,[44],3.4 µM
CC(C)(C)c1ccc(CC(=O)Nc2sc3c(c2C(N)=O)CCC(=O)C3)cc1,GI50,[44],1.38 µM
same,TGI,[44],3.72 µM
